Source: article PMC5218480 (PLoS ONE, 2017)

System: MV-4-11 cells
Test: Gene expression microarray analysis (Affymetrix PrimeView) and GSEA
Type: cell-based, human
Design: RFU PODN (11730768_x_at) / Fold change /veh PODN (11730768_x_at) / RFU LINC00158 (11744669_a_at) / Fold change /veh LINC00158 (11744669_a_at) / RFU DUSP10 (11751237_a_at) / Fold change /veh DUSP10 (11751237_a_at) / RFU ID3 (11757404_x_at) / Fold change /veh ID3 (11757404_x_at) / RFU PLEKHG5 (11737974_s_at) / Fold change /veh PLEKHG5 (11737974_s_at) / RFU LRRC4B (11730491_at) / Fold change /veh LRRC4B (11730491_at) / RFU GIMAP4 (11747438_a_at) / Fold change /veh GIMAP4 (11747438_a_at) / RFU KRT8 (11758183_x_at) / Fold change /veh KRT8 (11758183_x_at) / RFU CNN1 (11734310_a_at) / Fold change /veh CNN1 (11734310_a_at) / RFU VPS37D (11726825_at) / Fold change /veh VPS37D (11726825_at) / RFU C10orf10 (11716522_x_at) / Fold change /veh C10orf10 (11716522_x_at) / RFU KIR2DL2 /// KIR2DL4 /// KIR2DL5A /// KIR2DL5B /// KIR2DS1 /// KIR2DS2 /// KIR2DS3 /// KIR2DS4 /// KIR3DL3 /// KIR3DL3 /// KIR3DS1 (11738374_at) / Fold change /veh KIR2DL2 /// KIR2DL4 /// KIR2DL5A /// KIR2DL5B /// KIR2DS1 /// KIR2DS2 /// KIR2DS3 /// KIR2DS4 /// KIR3DL3 /// KIR3DL3 /// KIR3DS1 (11738374_at) / RFU C1QL1 (11718748_at) / Fold change /veh C1QL1 (11718748_at) / RFU TMPRSS4 (11747572_a_at) / Fold change /veh TMPRSS4 (11747572_a_at) / RFU HAMP (11756126_x_at) / Fold change /veh HAMP (11756126_x_at) / RFU RNFT2 (11725882_a_at) / Fold change /veh RNFT2 (11725882_a_at) / RFU NR4A2 (11747474_a_at) / Fold change /veh NR4A2 (11747474_a_at) / RFU ABCC12 (11746883_a_at) / Fold change /veh ABCC12 (11746883_a_at) / RFU TMEM136 (11760407_x_at) / Fold change /veh TMEM136 (11760407_x_at) / RFU CLDN22 /// WWC2 (11732394_at) / Fold change /veh CLDN22 /// WWC2 (11732394_at) / RFU HLA-DPB1 (11760878_x_at) / Fold change /veh HLA-DPB1 (11760878_x_at) / RFU SPINT1 (11716480_a_at) / Fold change /veh SPINT1 (11716480_a_at) / RFU GAP43 (11754022_s_at) / Fold change /veh GAP43 (11754022_s_at) / RFU A4GNT (11735810_at) / Fold change /veh A4GNT (11735810_at) / RFU PRB3 (11715151_x_at) / Fold change /veh PRB3 (11715151_x_at) / RFU TUBB4B (11761932_at) / Fold change /veh TUBB4B (11761932_at) / RFU CAPN14 (11732068_a_at) / Fold change /veh CAPN14 (11732068_a_at) / RFU TMCC2 (11721928_a_at) / Fold change /veh TMCC2 (11721928_a_at) / RFU IRGQ (11745062_a_at) / Fold change /veh IRGQ (11745062_a_at) / RFU FAM174B (11720279_a_at) / Fold change /veh FAM174B (11720279_a_at) / RFU TMPRSS4 (11748680_a_at) / Fold change /veh TMPRSS4 (11748680_a_at) / RFU FAM212B (11763350_a_at) / Fold change /veh FAM212B (11763350_a_at) / RFU PLEKHG5 (11743358_a_at) / Fold change /veh PLEKHG5 (11743358_a_at) / RFU ZSCAN30 (11745921_a_at) / Fold change /veh ZSCAN30 (11745921_a_at) / RFU CMKLR1 (11741424_a_at) / Fold change /veh CMKLR1 (11741424_a_at) / RFU LOC101060620 /// MAPK8IP1 (11723275_at) / Fold change /veh LOC101060620 /// MAPK8IP1 (11723275_at) / RFU SPTSSB (11747773_x_at) / Fold change /veh SPTSSB (11747773_x_at) / RFU PRSS12 (11739890_at) / Fold change /veh PRSS12 (11739890_at) / RFU BIN1 (11741810_x_at) / Fold change /veh BIN1 (11741810_x_at) / RFU WNT11 (11732464_a_at) / Fold change /veh WNT11 (11732464_a_at) / RFU C10orf10 (11716521_a_at) / Fold change /veh C10orf10 (11716521_a_at) / RFU C5orf56 (11738089_at) / Fold change /veh C5orf56 (11738089_at) / RFU CYB561 (11721691_x_at) / Fold change /veh CYB561 (11721691_x_at) / RFU ANKRD19P (11752326_a_at) / Fold change /veh ANKRD19P (11752326_a_at) / RFU OR2T12 /// OR2T33 /// OR2T8 (11738714_s_at) / Fold change /veh OR2T12 /// OR2T33 /// OR2T8 (11738714_s_at) / RFU VCAN (11748164_a_at) / Fold change /veh VCAN (11748164_a_at) / RFU JSRP1 (11732532_at) / Fold change /veh JSRP1 (11732532_at) / RFU KRTAP10-11 (11738290_x_at) / Fold change /veh KRTAP10-11 (11738290_x_at) / RFU MYO3A (11730013_a_at) / Fold change /veh MYO3A (11730013_a_at) / RFU EBF3 (11725865_a_at) / Fold change /veh EBF3 (11725865_a_at) / RFU CAMK2N1 (11719241_x_at) / Fold change /veh CAMK2N1 (11719241_x_at) / RFU C5orf56 (11738088_a_at) / Fold change /veh C5orf56 (11738088_a_at) / RFU OLFML3 (11715873_a_at) / Fold change /veh OLFML3 (11715873_a_at) / RFU LOC100653217 /// NTM (11731650_a_at) / Fold change /veh LOC100653217 /// NTM (11731650_a_at) / RFU MAPK11 (11762145_a_at) / Fold change /veh MAPK11 (11762145_a_at) / RFU FIZ1 (11724087_x_at) / Fold change /veh FIZ1 (11724087_x_at) / RFU OASL (11726364_x_at) / Fold change /veh OASL (11726364_x_at) / RFU SOX15 (11748057_x_at) / Fold change /veh SOX15 (11748057_x_at) / RFU CD79A (11719716_a_at) / Fold change /veh CD79A (11719716_a_at) / RFU HIST1H1D (11736915_at) / Fold change /veh HIST1H1D (11736915_at) / RFU CASKIN2 (11723855_a_at) / Fold change /veh CASKIN2 (11723855_a_at) / RFU LOC730098 (11760151_x_at) / Fold change /veh LOC730098 (11760151_x_at) / RFU OR4N2 (11742367_at) / Fold change /veh OR4N2 (11742367_at) / RFU PRRT2 (11749266_a_at) / Fold change /veh PRRT2 (11749266_a_at) / RFU SNX32 (11753110_a_at) / Fold change /veh SNX32 (11753110_a_at) / RFU CDHR5 (11726645_a_at) / Fold change /veh CDHR5 (11726645_a_at) / RFU RCAN1 (11760418_a_at) / Fold change /veh RCAN1 (11760418_a_at) / RFU FAM167A (11723789_a_at) / Fold change /veh FAM167A (11723789_a_at) / RFU FAM26E (11764081_at) / Fold change /veh FAM26E (11764081_at) / RFU ISYNA1 (11749810_s_at) / Fold change /veh ISYNA1 (11749810_s_at) / RFU ACY1 (11761880_at) / Fold change /veh ACY1 (11761880_at) / RFU 11764098_at / Fold change /veh 11764098_at / RFU SAMD14 (11745864_x_at) / Fold change /veh SAMD14 (11745864_x_at) / RFU NPB (11741838_a_at) / Fold change /veh NPB (11741838_a_at) / RFU TMPRSS6 (11731388_a_at) / Fold change /veh TMPRSS6 (11731388_a_at) / RFU KRTAP10-2 (11738614_at) / Fold change /veh KRTAP10-2 (11738614_at) / RFU ARHGAP8 /// PRR5-ARHGAP8 (11727945_x_at) / Fold change /veh ARHGAP8 /// PRR5-ARHGAP8 (11727945_x_at) / RFU KRTAP5-7 /// NADSYN1 (11734609_at) / Fold change /veh KRTAP5-7 /// NADSYN1 (11734609_at) / RFU RASL12 (11751679_a_at) / Fold change /veh RASL12 (11751679_a_at) / RFU CDKN2B (11736163_a_at) / Fold change /veh CDKN2B (11736163_a_at) / RFU PRF1 (11729649_at) / Fold change /veh PRF1 (11729649_at) / RFU, ZNF638 /// ZNF638-IT1 / Fold change vs veh, ZNF638 /// ZNF638-IT1 / RFU, PANK3 / Fold change vs veh, PANK3 / RFU, SH3YL1 / Fold change vs veh, SH3YL1 / RFU, ZEB2 / Fold change vs veh, ZEB2 / RFU, NRIP1 / Fold change vs veh, NRIP1 / RFU, PTTG1IP / Fold change vs veh, PTTG1IP / RFU, CAPN2 / Fold change vs veh, CAPN2 / RFU, MED14 / Fold change vs veh, MED14 / RFU, SNORA58 / Fold change vs veh, SNORA58 / RFU, C1orf63 / Fold change vs veh, C1orf63 / RFU, LRRFIP1 / Fold change vs veh, LRRFIP1 / RFU, NDUFAF7 / Fold change vs veh, NDUFAF7 / RFU, SLC12A2 / Fold change vs veh, SLC12A2 / RFU, IBTK / Fold change vs veh, IBTK / RFU, ESF1 / Fold change vs veh, ESF1 / Fold change vs veh, TMEM50B / RFU, TAOK1 / Fold change vs veh, TAOK1 / RFU, ACBD3 / Fold change vs veh, ACBD3 / RFU, TMA16 / Fold change vs veh, TMA16 / RFU, RWDD3 / Fold change vs veh, RWDD3 / RFU, BCAT1 / Fold change vs veh, BCAT1 / RFU, EDEM3 / Fold change vs veh, EDEM3 / RFU, TMEM33 / Fold change vs veh, TMEM33 / RFU, WDR75 / Fold change vs veh, WDR75 / RFU, AHCTF1 / Fold change vs veh, AHCTF1 / RFU, TFRC / Fold change vs veh, TFRC / RFU, ZDHHC17 / Fold change vs veh, ZDHHC17 / RFU, NOM1 / Fold change vs veh, NOM1 / RFU, ARL8B / Fold change vs veh, ARL8B / RFU, ZBTB11 / Fold change vs veh, ZBTB11 / RFU, TAMM41 / Fold change vs veh, TAMM41 / RFU, KIAA1704 /// LOC100996395 / Fold change vs veh, KIAA1704 /// LOC100996395 / RFU, ING1 / Fold change vs veh, ING1 / RFU, TRMT61B / Fold change vs veh, TRMT61B / RFU, FUBP3 / Fold change vs veh, FUBP3 / RFU, TP53 / Fold change vs veh, TP53 / RFU, TNKS2 / Fold change vs veh, TNKS2 / RFU, ZFP14 / Fold change vs veh, ZFP14 / RFU, ACTR2 / Fold change vs veh, ACTR2 / RFU, PPP3R1 / Fold change vs veh, PPP3R1 / RFU, PIK3R1 / Fold change vs veh, PIK3R1 / RFU, HNRNPA1 / Fold change vs veh, HNRNPA1 / RFU, RNF170 / Fold change vs veh, RNF170 / RFU, ZNF28 / Fold change vs veh, ZNF28 / RFU, RNGTT / Fold change vs veh, RNGTT / RFU, OGT / Fold change vs veh, OGT / RFU, BRD1 / Fold change vs veh, BRD1 / RFU, MARS / Fold change vs veh, MARS / RFU, ZNF655 / Fold change vs veh, ZNF655 / RFU, FAHD1 / Fold change vs veh, FAHD1 / RFU, BDP1 / Fold change vs veh, BDP1 / RFU, LRRCC1 / Fold change vs veh, LRRCC1 / RFU, ARID1A / Fold change vs veh, ARID1A / RFU, ZNF146 / Fold change vs veh, ZNF146 / RFU, ZNF330 / Fold change vs veh, ZNF330 / RFU, GPN3 / Fold change vs veh, GPN3 / RFU, C9orf123 / Fold change vs veh, C9orf123 / RFU, N4BP2L2 / Fold change vs veh, N4BP2L2 / RFU, ARFIP1 / Fold change vs veh, ARFIP1 / RFU, FAM179B / Fold change vs veh, FAM179B / RFU, BCL10 / Fold change vs veh, BCL10 / RFU, UHRF1BP1L / Fold change vs veh, UHRF1BP1L / RFU, BET1 / Fold change vs veh, BET1 / RFU, CNOT2 / Fold change vs veh, CNOT2 / RFU, ZNF268 / Fold change vs veh, ZNF268 / Fold change vs veh, ZNF507 / RFU, DGCR2 / Fold change vs veh, DGCR2 / RFU, WDSUB1 / Fold change vs veh, WDSUB1 / Fold change vs veh, HSP90B1 /// MIR3652 / RFU, ADSS / Fold change vs veh, ADSS / RFU, GK / Fold change vs veh, GK / RFU, ZNF148 / Fold change vs veh, ZNF148 / RFU, TAF9 / Fold change vs veh, TAF9 / RFU, SLC1A5 / Fold change vs veh, SLC1A5 / RFU, SLMO2 / Fold change vs veh, SLMO2 / RFU, ABCC4 / Fold change vs veh, ABCC4 / RFU, LOC101060439 /// RAP1B / Fold change vs veh, LOC101060439 /// RAP1B / RFU, RFX7 / Fold change vs veh, RFX7 / RFU, GTPBP10 / Fold change vs veh, GTPBP10 / RFU, CNEP1R1 / Fold change vs veh, CNEP1R1 / RFU, BIVM-ERCC5 /// ERCC5 / Fold change vs veh, BIVM-ERCC5 /// ERCC5 / RFU, ILF3 / Fold change vs veh, ILF3 / RFU 11762660_at / Fold change /veh 11762660_at / RFU VCAN (11757783_s_at) / Fold change /veh VCAN (11757783_s_at) / RFU DDX43 (11728927_at) / Fold change /veh DDX43 (11728927_at) / RFU KRT8 (11758188_x_at) / Fold change /veh KRT8 (11758188_x_at) / RFU NKD1 (11759106_at) / Fold change /veh NKD1 (11759106_at) / RFU SRD5A1 (11742802_a_at) / Fold change /veh SRD5A1 (11742802_a_at) / RFU TPSAB1 /// TPSB2 (11721975_s_at) / Fold change /veh TPSAB1 /// TPSB2 (11721975_s_at) / RFU GSTM3 (11746129_a_at) / Fold change /veh GSTM3 (11746129_a_at) / RFU IL23R (11737362_x_at) / Fold change /veh IL23R (11737362_x_at) / RFU TMEM51 (11727254_a_at) / Fold change /veh TMEM51 (11727254_a_at) / RFU PIWIL2 (11732686_x_at) / Fold change /veh PIWIL2 (11732686_x_at) / RFU ORM1 (11744905_x_at) / Fold change /veh ORM1 (11744905_x_at) / RFU CCDC152 (11743942_at) / Fold change /veh CCDC152 (11743942_at) / RFU ECM1 (11717891_a_at) / Fold change /veh ECM1 (11717891_a_at) / RFU IL23R (11748794_a_at) / Fold change /veh IL23R (11748794_a_at) / RFU TNFAIP8L3 (11732012_x_at) / Fold change /veh TNFAIP8L3 (11732012_x_at) / RFU MBOAT4 (11741988_at) / Fold change /veh MBOAT4 (11741988_at) / RFU 11764193_at / Fold change /veh 11764193_at / RFU TMEM53 (11763286_at) / Fold change /veh TMEM53 (11763286_at) / RFU MAGEB2 (11727129_at) / Fold change /veh MAGEB2 (11727129_at) / RFU TMEM200A (11744735_a_at) / Fold change /veh TMEM200A (11744735_a_at) / RFU CCDC152 (11751479_a_at) / Fold change /veh CCDC152 (11751479_a_at) / RFU FAM211A (11726209_a_at) / Fold change /veh FAM211A (11726209_a_at) / RFU RGS16 (11746705_a_at) / Fold change /veh RGS16 (11746705_a_at) / RFU VCAN (11755009_s_at) / Fold change /veh VCAN (11755009_s_at) / RFU RHOB (11743442_s_at) / Fold change /veh RHOB (11743442_s_at) / RFU RGS16 (11720943_a_at) / Fold change /veh RGS16 (11720943_a_at) / RFU RGS16 (11720944_at) / Fold change /veh RGS16 (11720944_at) / RFU, VPS4B / Fold change vs veh, VPS4B / RFU, CREB1 / Fold change vs veh, CREB1 / RFU, DNAJC13 / Fold change vs veh, DNAJC13 / RFU, GNAQ / Fold change vs veh, GNAQ / RFU, CDK5R1 / Fold change vs veh, CDK5R1 / RFU, ZRANB3 / Fold change vs veh, ZRANB3 / RFU, CUL4A / Fold change vs veh, CUL4A / RFU, CCNY / Fold change vs veh, CCNY / RFU, UFL1 / Fold change vs veh, UFL1 / RFU, COG3 / Fold change vs veh, COG3 / RFU, DIAPH2 / Fold change vs veh, DIAPH2 / RFU, SKA2 / Fold change vs veh, SKA2 / RFU, AFF3 / Fold change vs veh, AFF3 / RFU, LMF1 / Fold change vs veh, LMF1 / RFU, IPO11 / Fold change vs veh, IPO11 / RFU, DFFB / Fold change vs veh, DFFB / RFU, FOXP1 / Fold change vs veh, FOXP1 / RFU, CARD8 / Fold change vs veh, CARD8 / RFU, STRN3 / Fold change vs veh, STRN3 / RFU, ADK / Fold change vs veh, ADK / RFU, RASSF2 / Fold change vs veh, RASSF2 / RFU, WIPF1 / Fold change vs veh, WIPF1 / RFU, LARP1B / Fold change vs veh, LARP1B / RFU, RASA1 / Fold change vs veh, RASA1 / RFU, RB1 / Fold change vs veh, RB1 / RFU, PPFIA1 / Fold change vs veh, PPFIA1 / RFU, MAT2A / Fold change vs veh, MAT2A / RFU, CCT5 / Fold change vs veh, CCT5 / RFU, WDR92 / Fold change vs veh, WDR92 / RFU, CUX1 / Fold change vs veh, CUX1 / RFU, TTC7A / Fold change vs veh, TTC7A / RFU, TMEM135 / Fold change vs veh, TMEM135 / RFU, DEPTOR / Fold change vs veh, DEPTOR / RFU, CPM / Fold change vs veh, CPM / RFU, DNAJB6 / Fold change vs veh, DNAJB6 / RFU, CACNA2D3 / Fold change vs veh, CACNA2D3 / RFU, DTX4 / Fold change vs veh, DTX4 / RFU, TFCP2 / Fold change vs veh, TFCP2 / RFU, GMCL1 /// GMCL1P1 / Fold change vs veh, GMCL1 /// GMCL1P1 / RFU, AEBP2 / Fold change vs veh, AEBP2 / RFU, SNHG1 /// SNORD22 /// SNORD25 /// SNORD26 /// SNORD27 /// SNORD28 /// SNORD29 /// SNORD31 / Fold change vs veh, SNHG1 /// SNORD22 /// SNORD25 /// SNORD26 /// SNORD27 /// SNORD28 /// SNORD29 /// SNORD31 / Fold change (Aza/veh), C12orf56 (ProbeSet 11735607_a_at) / Fold change (ACY-1035/veh), C12orf56 (ProbeSet 11735607_a_at) / Fold change (Aza/veh), FGFR1OP (ProbeSet 11751329_s_at) / Fold change (ACY-1035/veh), FGFR1OP (ProbeSet 11751329_s_at) / Fold change (Aza/veh), VPS36 (ProbeSet 11739960_a_at) / Fold change (ACY-1035/veh), VPS36 (ProbeSet 11739960_a_at) / RFU SYPL1 (11715823_x_at) / Fold change /veh SYPL1 (11715823_x_at) / RFU IGFBP7 (11715501_s_at) / Fold change /veh IGFBP7 (11715501_s_at) / RFU REEP3 (11722064_at) / Fold change /veh REEP3 (11722064_at) / RFU IGLL1 (11728026_x_at) / Fold change /veh IGLL1 (11728026_x_at): dose or concentration left out as unconfirmed
Settings: ProbeSet 11758170_s_at; LIST D

## Nc1ncn([C@@H]2O[C@H](CO)[C@@H](O)[C@H]2O)c(=O)n1 [azacitidine]
  Fold change vs veh, DIAPH2: 0.72
